Assay results taken from US20240175876A1, “PERIPLASMIC LIGAND TRAPPING SYSTEM” (UNIVERSITY OF MIAMI, priority 2022, published 2024).

Target: T1, Angiotensin II Receptor Type I (AGTR1) (Homo sapiens, UniProt P30556)
T1 construct: expressed in transfected cells; host or cells: Saccharomyces cerevisiae strain DI DCyFIR P1 I (humanized Gαi)
T1 sequence (P30556 1-359): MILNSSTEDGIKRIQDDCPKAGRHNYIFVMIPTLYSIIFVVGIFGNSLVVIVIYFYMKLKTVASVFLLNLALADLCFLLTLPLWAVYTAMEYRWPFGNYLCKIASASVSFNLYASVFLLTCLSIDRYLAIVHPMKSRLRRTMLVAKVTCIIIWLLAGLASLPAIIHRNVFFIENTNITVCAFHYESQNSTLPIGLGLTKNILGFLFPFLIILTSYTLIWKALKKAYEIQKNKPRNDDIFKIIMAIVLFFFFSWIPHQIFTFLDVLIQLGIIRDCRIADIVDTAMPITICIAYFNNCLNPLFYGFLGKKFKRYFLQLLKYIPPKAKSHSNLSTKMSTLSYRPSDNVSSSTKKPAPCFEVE
Assay: AGTR1 modulation via intracellular nanobodies, galactose-induced AGT-II, mTq2 reporter in yeast
Type: cell-based
Conditions: galactose-induced secreted ligand, Gαi strain; FIG. 5B

## angiotensin II [AGT-II]
  AGTR1 activation by inducible expression of ligand: successfully resulted in AGTR1 activation
